{"source": "paper PMC9632963", "about": "“Preclinical characterization and phase I clinical trial of CT053PTSA targets MET, AXL, and VEGFR2 in patients with advanced solid tumors” (Frontiers in Immunology, 2022)", "key": {"MERTK": {"target": "MERTK (Homo sapiens, UniProt Q12866)", "sequence (Q12866 21-999)": "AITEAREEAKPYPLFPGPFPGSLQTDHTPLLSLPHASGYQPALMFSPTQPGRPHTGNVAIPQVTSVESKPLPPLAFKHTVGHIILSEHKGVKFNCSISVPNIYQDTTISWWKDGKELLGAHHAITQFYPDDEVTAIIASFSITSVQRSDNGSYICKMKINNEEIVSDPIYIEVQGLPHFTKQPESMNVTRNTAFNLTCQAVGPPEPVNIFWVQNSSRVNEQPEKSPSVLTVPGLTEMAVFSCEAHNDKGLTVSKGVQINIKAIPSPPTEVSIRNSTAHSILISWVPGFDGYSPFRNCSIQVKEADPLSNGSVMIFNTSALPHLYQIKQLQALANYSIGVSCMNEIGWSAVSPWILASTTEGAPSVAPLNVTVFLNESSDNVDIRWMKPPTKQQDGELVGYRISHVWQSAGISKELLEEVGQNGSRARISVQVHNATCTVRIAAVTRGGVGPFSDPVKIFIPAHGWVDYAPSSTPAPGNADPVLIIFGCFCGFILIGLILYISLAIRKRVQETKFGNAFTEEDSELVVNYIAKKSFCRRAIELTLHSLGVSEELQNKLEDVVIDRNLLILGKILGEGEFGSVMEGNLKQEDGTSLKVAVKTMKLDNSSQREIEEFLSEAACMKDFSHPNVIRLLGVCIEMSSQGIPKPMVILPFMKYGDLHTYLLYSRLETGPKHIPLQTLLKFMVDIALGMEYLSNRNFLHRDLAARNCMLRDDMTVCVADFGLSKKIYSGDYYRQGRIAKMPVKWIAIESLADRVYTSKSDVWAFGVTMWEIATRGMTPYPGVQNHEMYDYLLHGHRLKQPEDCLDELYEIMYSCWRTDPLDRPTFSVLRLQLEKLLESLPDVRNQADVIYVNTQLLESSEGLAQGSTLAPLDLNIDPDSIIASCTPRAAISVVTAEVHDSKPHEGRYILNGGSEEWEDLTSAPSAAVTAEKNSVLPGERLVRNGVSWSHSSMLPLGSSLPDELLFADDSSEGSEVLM", "experiment": "Kinase inhibition assay (LANCE or HTRF)", "assay_type": "biochemical", "conditions": "ATP at Km", "method": "(§4) The IC50 values were determined by measuring phosphorylation of peptide substrate poly at ATP concentrations at the Km."}, "EphA6": {"target": "EphA6 (Homo sapiens, UniProt Q9UF33)", "sequence (Q9UF33 23-1036)": "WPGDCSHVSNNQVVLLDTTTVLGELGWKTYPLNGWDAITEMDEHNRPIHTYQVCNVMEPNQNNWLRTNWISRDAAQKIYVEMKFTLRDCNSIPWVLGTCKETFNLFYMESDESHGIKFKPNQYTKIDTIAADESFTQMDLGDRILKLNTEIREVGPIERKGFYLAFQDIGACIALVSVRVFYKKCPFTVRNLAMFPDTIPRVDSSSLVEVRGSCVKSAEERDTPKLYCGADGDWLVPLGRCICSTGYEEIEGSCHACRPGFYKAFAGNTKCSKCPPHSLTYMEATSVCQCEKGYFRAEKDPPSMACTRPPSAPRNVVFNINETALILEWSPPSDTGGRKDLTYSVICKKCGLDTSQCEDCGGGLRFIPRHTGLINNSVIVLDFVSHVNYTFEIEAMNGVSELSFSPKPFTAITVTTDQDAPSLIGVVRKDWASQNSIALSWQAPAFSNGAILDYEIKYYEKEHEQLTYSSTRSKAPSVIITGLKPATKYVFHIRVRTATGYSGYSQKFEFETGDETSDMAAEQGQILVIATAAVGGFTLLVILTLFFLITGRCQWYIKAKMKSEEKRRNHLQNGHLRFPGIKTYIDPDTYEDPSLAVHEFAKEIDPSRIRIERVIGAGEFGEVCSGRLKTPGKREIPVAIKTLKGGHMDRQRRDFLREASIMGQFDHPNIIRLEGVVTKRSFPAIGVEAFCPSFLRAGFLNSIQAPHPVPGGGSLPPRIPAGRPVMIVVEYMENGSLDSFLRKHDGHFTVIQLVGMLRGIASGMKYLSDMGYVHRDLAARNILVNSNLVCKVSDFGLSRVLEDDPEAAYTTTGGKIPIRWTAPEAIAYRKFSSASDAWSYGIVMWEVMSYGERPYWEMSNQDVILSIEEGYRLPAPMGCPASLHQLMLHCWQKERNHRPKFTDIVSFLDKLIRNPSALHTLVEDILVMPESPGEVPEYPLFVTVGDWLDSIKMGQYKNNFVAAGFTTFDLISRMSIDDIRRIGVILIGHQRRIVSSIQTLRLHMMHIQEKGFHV", "experiment": "Kinase inhibition assay (LANCE or HTRF)", "assay_type": "biochemical", "conditions": "ATP at Km", "method": "as §4"}, "Tyro3": {"target": "Tyro3 (Homo sapiens, UniProt Q06418)", "sequence (Q06418 41-890)": "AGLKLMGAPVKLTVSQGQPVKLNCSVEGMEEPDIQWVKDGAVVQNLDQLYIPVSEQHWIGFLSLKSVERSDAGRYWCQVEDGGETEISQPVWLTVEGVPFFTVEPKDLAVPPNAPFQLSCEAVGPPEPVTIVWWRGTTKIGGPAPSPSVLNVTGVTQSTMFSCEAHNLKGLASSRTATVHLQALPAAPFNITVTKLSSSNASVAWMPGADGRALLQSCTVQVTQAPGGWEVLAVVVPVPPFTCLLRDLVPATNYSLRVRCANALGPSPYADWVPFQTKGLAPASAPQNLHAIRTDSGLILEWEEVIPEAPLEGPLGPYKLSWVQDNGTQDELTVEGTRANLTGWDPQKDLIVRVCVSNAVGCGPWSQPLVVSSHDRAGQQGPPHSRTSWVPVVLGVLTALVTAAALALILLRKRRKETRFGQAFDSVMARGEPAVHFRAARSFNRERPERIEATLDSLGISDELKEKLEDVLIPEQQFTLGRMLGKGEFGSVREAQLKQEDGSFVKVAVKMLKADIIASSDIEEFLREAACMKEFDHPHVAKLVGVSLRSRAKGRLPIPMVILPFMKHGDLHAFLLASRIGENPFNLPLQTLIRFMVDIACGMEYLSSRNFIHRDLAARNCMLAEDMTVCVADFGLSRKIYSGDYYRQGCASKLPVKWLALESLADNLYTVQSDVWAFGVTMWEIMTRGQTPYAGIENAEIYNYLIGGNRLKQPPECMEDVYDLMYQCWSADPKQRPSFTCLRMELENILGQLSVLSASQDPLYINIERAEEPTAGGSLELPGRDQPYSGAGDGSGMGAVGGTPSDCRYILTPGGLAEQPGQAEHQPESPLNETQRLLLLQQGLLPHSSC", "experiment": "Kinase inhibition assay (LANCE or HTRF)", "assay_type": "biochemical", "conditions": "ATP at Km", "method": "as §4"}, "FLT4": {"target": "FLT4 (Homo sapiens, UniProt P35916)", "sequence (P35916 25-1363)": "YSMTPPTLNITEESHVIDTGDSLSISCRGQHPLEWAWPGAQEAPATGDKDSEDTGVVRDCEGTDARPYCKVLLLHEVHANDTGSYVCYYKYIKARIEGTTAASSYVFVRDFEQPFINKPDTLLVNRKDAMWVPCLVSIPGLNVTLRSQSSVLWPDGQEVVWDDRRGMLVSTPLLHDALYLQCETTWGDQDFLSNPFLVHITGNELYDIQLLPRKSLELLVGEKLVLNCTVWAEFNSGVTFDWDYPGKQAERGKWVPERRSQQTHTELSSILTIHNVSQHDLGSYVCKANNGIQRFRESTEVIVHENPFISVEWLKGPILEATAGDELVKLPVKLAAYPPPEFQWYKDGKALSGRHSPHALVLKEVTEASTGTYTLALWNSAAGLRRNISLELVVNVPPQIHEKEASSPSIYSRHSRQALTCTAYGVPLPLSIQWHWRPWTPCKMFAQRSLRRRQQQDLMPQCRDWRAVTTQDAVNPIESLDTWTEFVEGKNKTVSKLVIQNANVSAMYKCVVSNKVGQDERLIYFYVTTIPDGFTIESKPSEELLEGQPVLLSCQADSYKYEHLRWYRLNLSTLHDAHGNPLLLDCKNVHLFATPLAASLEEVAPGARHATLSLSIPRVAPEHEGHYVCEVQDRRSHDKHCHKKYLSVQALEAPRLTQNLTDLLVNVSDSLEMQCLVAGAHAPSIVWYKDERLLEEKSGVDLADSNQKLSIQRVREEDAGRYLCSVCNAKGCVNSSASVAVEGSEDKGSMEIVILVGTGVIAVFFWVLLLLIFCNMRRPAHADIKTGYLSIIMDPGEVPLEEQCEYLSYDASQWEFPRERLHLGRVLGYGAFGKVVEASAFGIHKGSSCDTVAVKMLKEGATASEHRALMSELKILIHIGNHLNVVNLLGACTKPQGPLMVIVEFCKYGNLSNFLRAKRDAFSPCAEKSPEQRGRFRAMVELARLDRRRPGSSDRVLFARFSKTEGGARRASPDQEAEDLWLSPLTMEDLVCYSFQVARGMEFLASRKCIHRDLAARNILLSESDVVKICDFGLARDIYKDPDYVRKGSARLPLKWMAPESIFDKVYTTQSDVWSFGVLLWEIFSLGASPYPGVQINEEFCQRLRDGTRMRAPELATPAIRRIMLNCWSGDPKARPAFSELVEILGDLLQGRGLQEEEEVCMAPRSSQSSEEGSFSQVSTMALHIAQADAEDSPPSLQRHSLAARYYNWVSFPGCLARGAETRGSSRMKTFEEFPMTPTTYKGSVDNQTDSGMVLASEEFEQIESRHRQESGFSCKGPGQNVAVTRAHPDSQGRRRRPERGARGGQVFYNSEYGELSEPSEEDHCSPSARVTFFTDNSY", "experiment": "Kinase inhibition assay (LANCE or HTRF)", "assay_type": "biochemical", "conditions": "ATP at Km", "method": "as §4"}, "FRK": {"target": "FRK (Homo sapiens, UniProt P42685)", "experiment": "Kinase inhibition assay (LANCE or HTRF)", "assay_type": "biochemical", "conditions": "ATP at Km", "method": "as §4"}, "Fgr": {"target": "Fgr (Homo sapiens, UniProt P09769)", "sequence (P09769 whole entry)": "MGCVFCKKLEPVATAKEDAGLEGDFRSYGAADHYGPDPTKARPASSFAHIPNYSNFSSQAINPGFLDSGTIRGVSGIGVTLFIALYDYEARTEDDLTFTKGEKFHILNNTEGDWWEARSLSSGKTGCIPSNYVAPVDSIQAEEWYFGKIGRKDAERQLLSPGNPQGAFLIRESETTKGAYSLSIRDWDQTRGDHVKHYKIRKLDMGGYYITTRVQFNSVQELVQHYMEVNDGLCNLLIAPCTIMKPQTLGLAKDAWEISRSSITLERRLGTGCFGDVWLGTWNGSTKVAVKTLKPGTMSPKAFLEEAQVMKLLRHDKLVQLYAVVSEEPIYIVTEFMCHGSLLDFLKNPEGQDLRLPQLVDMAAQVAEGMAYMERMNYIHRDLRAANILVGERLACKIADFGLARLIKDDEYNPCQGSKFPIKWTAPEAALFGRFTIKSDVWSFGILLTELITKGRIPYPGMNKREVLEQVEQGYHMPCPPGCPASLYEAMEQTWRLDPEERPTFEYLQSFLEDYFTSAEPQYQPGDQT", "experiment": "Kinase inhibition assay (LANCE or HTRF)", "assay_type": "biochemical", "conditions": "ATP at Km", "method": "as §4"}, "PDGFRα": {"target": "PDGFRα (Homo sapiens, UniProt P16234)", "experiment": "Kinase inhibition assay (LANCE or HTRF)", "assay_type": "biochemical", "conditions": "ATP at Km", "method": "as §4"}, "MLK": {"target": "MLK", "experiment": "Kinase inhibition assay (LANCE or HTRF)", "assay_type": "biochemical, human", "conditions": "ATP at Km", "method": "as §4"}, "SNU-5": {"tested_on": "SNU-5", "experiment": "Cell proliferation assay (CellTiter-Glo, 72 hours)", "assay_type": "cell-based", "conditions": "Homo sapiens, read-out: IC50 anti-proliferative", "method": "Human gastric tumor cell lines with high MET expression levels, namely, the GTL-16, MKN45, SNU638, Hs746T, SNU-620, and SNU-5 cell lines, were used in the assay. […] Cell viability was measured after 72 hours using a CellTiter-Glo Luminescent Cell Viability Assay Kit (Promega, WI, USA) according to the manufacturer’s instructions."}, "AGS": {"tested_on": "AGS", "experiment": "Cell proliferation assay (CellTiter-Glo, 72 hours)", "assay_type": "cell-based", "conditions": "Homo sapiens, read-out: IC50 anti-proliferative"}, "SNU-601": {"tested_on": "SNU-601", "experiment": "Cell proliferation assay (CellTiter-Glo, 72 hours)", "assay_type": "cell-based", "conditions": "Homo sapiens, read-out: IC50 anti-proliferative"}, "[1]": {"tested_on": "gastric tumor cell lines with high MET mRNA levels", "experiment": "cells", "conditions": "Homo sapiens, read-out: average IC50 value", "description": "(§1) These cell lines were obtained from American Type Culture Collection (ATCC), Japanese Collection of Research Bioresources (JCRB), Shanghai Institutes of Biological Sciences, CAS (SIBS), Korean Cell Line Bank (KCLB) or National Institutes of Health (NIH). […] Cell viability was measured after 72 hours using a CellTiter-Glo Luminescent Cell Viability Assay Kit (Promega, WI, USA) according to the manufacturer’s instructions.\n(§2) The MET mRNA expression level in each human gastric cell lines was evaluated with real-time PCR. Glyceraldehyde-3-phosphate dehydrogenase (GAPDH) was considered as the internal control. The amplification was performed in a 20 μl mixture containing 10 μl of TaqMan Universal PCR Master Mix (Invitrogen, CA, USA) with UNG, 1 μl of the MET (Hs01565584_m1) or GAPDH (Hs02786624_g1) TaqMan Gene Expression Assay (Thermo, CA, USA), and 5 μl of cDNA solution. Each sample was analyzed in triplicate on an Agilent Technologies Stratagenes Mx3005P (CA, USA). Relative MET mRNA expression is presented as the fold-change, which was calculated using the 2^ (-ΔΔCt) method."}, "[2]": {"tested_on": "gastric tumor cell lines with low MET mRNA levels", "experiment": "cells", "conditions": "Homo sapiens, read-out: average IC50 value", "description": "as §1, §2"}, "GA0046 PDX xenografts": {"tested_on": "GA0046 PDX xenografts", "experiment": "In vivo efficacy study, PDX model", "parameters": "species or system immunodeficient mice", "description": "(§3) Human tumor xenografts were established in female BALB/cA nude mice (5-6 weeks old) by administering the SNU-5 and MKN-45 cells, which have high MET expression levels. For efficacy studies in patient-derived tumor xenograft (PDX) mouse models, MET-overexpressing GA0046 and GA3121 tumors (obtained from Crownbio, CA, USA) were established by directly implanting surgical tissues into immunodeficient mice. […] The subcutaneous tumor size and body weight were measured twice weekly. The tumor volumes were determined by measuring two perpendicular diameters with calipers and calculated as (length × width^2)/2."}, "GA3121 PDX xenografts": {"tested_on": "GA3121 PDX xenografts", "experiment": "In vivo efficacy study, PDX model", "parameters": "species or system immunodeficient mice", "conditions": "20 mg/kg once per day oral gavage", "description": "as §3"}, "[3]": {"experiment": "Phase I trial: clinical pharmacokinetics in plasma", "assay_type": "in vivo, human", "description": "A clinical pharmacokinetic study of CT053PTSA was performed for both single doses and multiple doses. Blood samples were collected from each subject at prespecified times before and after single-dose administration (systemic blood samples: before treatment and 0.5, 1, 2, 3, 4, 5, 8, 12, 24, 36, 48, 72, 120 and 168 hours after treatment) and during multiple dosing (cycle 1 before treatment on Days 8, 15 and 22, as well as systemic blood samples on Day 28). […]\nStatistical analysis of CT053-treated tumors versus vehicle-treated tumors or versus nontreated tumors was performed by repeated-measures ANOVA. The data from the tumor xenograft models were expressed as the means ± standard error of the mean (SEM) and were plotted as a function of time. Noncompartmental pharmacokinetic analysis was performed using Phoenix WinNonlin Version 6.2.1 (Certara Inc., NJ, USA). Demographics and laboratory results of all the subjects were summarized using descriptive statistics. The pharmacokinetic parameters Tmax and T1/2 were shown as the median (min, max) and mean ± SD, respectively. A two-sided P < 0.05 was considered to indicate statistical significance. Statistical analysis was performed by using GraphPad Prism 5.0 (GraphPad Prism, RRID : SCR_002798) and SPSS software version 19.0 (SPSS, RRID : SCR_002865)."}}}
{"smiles": "Cc1c(C(=O)Nc2ccc(Oc3ccnc4cc(OCC(C)(C)O)ccc34)c(F)c2)c(=O)n(-c2ccccc2)n1C", "note": "[CT053]", "values": [{"measurement": "IC50", "setting": "MERTK", "value": 14, "unit": "nM"}, {"measurement": "IC50", "setting": "EphA6", "value": 81, "unit": "nM"}, {"measurement": "IC50", "setting": "Tyro3", "value": 150, "unit": "nM"}, {"measurement": "IC50", "setting": "FLT4", "value": 46, "unit": "nM"}, {"measurement": "IC50", "setting": "FRK", "value": 520, "unit": "nM"}, {"measurement": "IC50", "setting": "Fgr", "value": 77, "unit": "nM"}, {"measurement": "IC50", "setting": "PDGFRα", "value": 390, "unit": "nM"}, {"measurement": "IC50", "setting": "MLK", "value": 160, "unit": "nM"}, {"measurement": "IC50", "setting": "SNU-5", "value": 60, "unit": "nM"}, {"measurement": "IC50", "setting": "AGS", "value": "> 10000", "unit": "nM"}, {"measurement": "IC50", "setting": "SNU-601", "value": "> 10000", "unit": "nM"}, {"measurement": "IC50", "setting": "[1]", "value": 95, "unit": "nM"}, {"measurement": "IC50", "setting": "[2]", "value": "> 10000", "unit": "nM"}, {"measurement": "TGI", "setting": "GA0046 PDX xenografts; 3 mg/kg once per day oral gavage", "value": 18, "unit": "%"}, {"measurement": "TGI", "setting": "GA0046 PDX xenografts; 10 mg/kg once per day oral gavage", "value": 57, "unit": "%"}, {"measurement": "TGI", "setting": "GA0046 PDX xenografts; 20 mg/kg once per day oral gavage", "value": 75, "unit": "%"}, {"measurement": "TGI", "setting": "GA3121 PDX xenografts", "value": 172, "unit": "%"}, {"measurement": "PK profile versus dose", "setting": "[3]; multiple doses, 60-100 mg", "value": "linear PK profile"}, {"measurement": "PK profile versus dose", "setting": "[3]; single oral dose, 15 to 150 mg", "value": "general linear PK profile"}]}
